Experiments:
Format in all cases: functional
[1] = Antiplatelet activity in Mus musculus Laca (mouse) platelet assessed as bleeding time at 7.5 mg/kg, po after 1 hr by tail transaction bleeding test (reference value: 3.2 +/- 0.218 min)
[2] = Antiplatelet activity in Mus musculus Laca (mouse) platelet assessed as bleeding time at 15 mg/kg, po after 1 hr by tail transaction bleeding test (reference value: 3.2 +/- 0.218 min)
[3] = Antiplatelet activity in Mus musculus Laca (mouse) platelet assessed as bleeding time at 30 mg/kg, po after 1 hr by tail transaction bleeding test (reference value: 3.2 +/- 0.218 min)
[4] = Antiplatelet activity in Mus musculus Laca (mouse) platelet assessed as bleeding time at 60 mg/kg, po after 1 hr by tail transaction bleeding test (reference value: 3.2 +/- 0.218 min)
[5] = Antiplatelet activity in Mus musculus Laca (mouse) platelet assessed as bleeding time at 15 mg/kg, po after 1 hr by tail transaction bleeding test relative to aspirin

Structure (SMILES)	Time [1]	Time [2]	Time [3]	Time [4]	fold change (FC) [5]
COc1ccc(CNc2ccc(C3=NNC(=O)CC3)cc2)cc1OC	4.2 min	5.6 min	6.5 min	7.1 min	–
COc1cc(CNc2ccc(C3=NNC(=O)CC3)cc2)cc(OC)c1OC	4.4 min	5.2 min	6.1 min	6.5 min	–
O=C1CCC(c2ccc(NCc3ccccc3O)cc2)=NN1	4.4 min	7.4 min	8.5 min	9.2 min	–
COc1cc(CNc2ccc(C3=NNC(=O)CC3)cc2)ccc1O	4.1 min	5.2 min	6.1 min	7.3 min	–
O=C1CCC(c2ccc(NCc3ccc(F)cc3)cc2)=NN1	3.8 min	4.9 min	6.2 min	7 min	–
O=C1CCC(c2ccc(NCc3c[nH]c4ccccc34)cc2)=NN1	5.5 min	8.3 min	9.2 min	9.7 min	>2
O=C1CCC(c2ccc(NCc3ccncc3)cc2)=NN1	4.3 min	5.3 min	6.2 min	7 min	–
O=C1CCC(c2ccc(NCc3cccnc3)cc2)=NN1	4.1 min	5.5 min	6.2 min	6.6 min	–
CC(=O)Oc1ccccc1C(=O)O [ASPIRIN]	4.2 min	5.3 min	6.1 min	6.6 min	–

Reference: ChEMBL document CHEMBL3045234, “Synthesis of new pyridazinone derivatives as platelet aggregation inhibitors” (2010)
